Measured values published in US11841369B2, “Method for improving quality of therapeutic cell through real-time glutathione measurement” (CELL2IN, INC., priority 2017, dated 2023).

Legend:
[1] = test system: hUC-MSCs; experiment: CFU-F assay of hUC-MSCs; type: cell-based, human; details: 125 or 250 μg/mL AA2G, three days
Experimental: (§1) The inventors observed an effect of the material on stem cells by treating each stem cells with a material for enhancing a glutathione evaluation parameter. When hUC-MSCs were subcultured in a L-AA2G-containing medium, CFU-F, migration capacity, and an anti-inflammatory effect were observed. A CFU-F assay (n=3) was performed by treating hUC-MSCs with 125 or 250 μg/mL of AA2G for three days. As shown in FIGS. 16A and 16B, it was confirmed that, when AA2G was treated, CFU-F increased. In addition, as hUC-MSCs were treated with 125 or 250 μg/mL of AA2G for three days, PDGF-AA-induced migration capacity (n=3) was analyzed. As shown in FIGS. 17A and 17B, it was confirmed that the migration capacity was increased by AA2G treatment. In addition, the reduction in T cell proliferation, a reduction in T cell differentiation, and the promotion of Treg cell differentiation were observed by treating hUC-MSCs with 125 or 250 μg/mL of AA2G for three days. […] Meanwhile, hUC-MSCs were cultured with a glutathione precursor such as γ-glutamyl cysteine (GGC, 0.1, 0.25, and 0.5 mM). A CFU-F assay (n=3) was performed by treating hUC-MSCs with each concentration of GGC for 2 hours. […] In addition, SDF1α and PDGF-AA-induced migration capacities (n=3) were analyzed for hUC-MSCs without treatment with GGC, and SDF1α- and PDGF-AA-induced migration abilities (n=3) were analyzed by treating hUC-MSCs with the increasing concentrations of GGC. STI571 was used as a PDGFR kinase inhibitor. As shown in FIGS. 20A to 20C, it was confirmed that, according to an increase in GGC treatment concentration, SDF1α- and PDGF-AA-induced migration capacities were enhanced. A CFU-F assay (n=3) was performed by treating hUC-MSCs with 0.2, 1, 2, and 4 μM ferrostatin-1 and 0.1, 0.5, 1, and 2 μM liproxstatin-1 for 24 hours.

[2] = test system: hUC-MSCs; experiment: SDF1α- and PDGF-AA-induced migration capacity of hUC-MSCs; type: cell-based, human; details: 125 or 250 μg/mL AA2G, three days
Experimental: as §1, with “enhanced.” for “enhanced. A CFU-F assay (n=3) was performed by treating hUC-MSCs with 0.2, 1, 2, and 4 μM ferrostatin-1 and 0.1, 0.5, 1, and 2 μM liproxstatin-1 for 24 hours.”

[3] = test system: T cells; experiment: Anti-inflammatory effect of treated hUC-MSCs: T cell proliferation, T cell differentiation, Treg cell differentiation; type: cell-based; details: hUC-MSCs treated with 125 or 250 μg/mL AA2G, three days
Experimental: The inventors observed an effect of the material on stem cells by treating each stem cells with a material for enhancing a glutathione evaluation parameter. When hUC-MSCs were subcultured in a L-AA2G-containing medium, CFU-F, migration capacity, and an anti-inflammatory effect were observed. A CFU-F assay (n=3) was performed by treating hUC-MSCs with 125 or 250 μg/mL of AA2G for three days. As shown in FIGS. 16A and 16B, it was confirmed that, when AA2G was treated, CFU-F increased. In addition, as hUC-MSCs were treated with 125 or 250 μg/mL of AA2G for three days, PDGF-AA-induced migration capacity (n=3) was analyzed. As shown in FIGS. 17A and 17B, it was confirmed that the migration capacity was increased by AA2G treatment. In addition, the reduction in T cell proliferation, a reduction in T cell differentiation, and the promotion of Treg cell differentiation were observed by treating hUC-MSCs with 125 or 250 μg/mL of AA2G for three days.
In addition, hUC-MSCs were cultured with ferrostatin-1 (0.2, 1, 2 and 4 μM) and liproxstatin-1 (0.1, 0.5, 1 and 2 μM), which control a glutathione level in cells by inhibiting lipid oxidation. […] Meanwhile, the hUC-MSCs were treated with 1 μM ferrostatin-1 for 24 hours, 0.2 mM GGC for 2 hours, and 2 mM GSH-EE for 2 hours. As a result, the reduction in T cell proliferation ability and the reduction in T cell differentiation capacity were observed, and promotion of Treg cell differentiation was observed.

Structure (SMILES): O=C1O[C@H]([C@@H](O)CO)C(O)=C1O[C@H]1O[C@H](CO)[C@@H](O)[C@H](O)[C@H]1O [AA2G, ascorbic acid 2-glucoside]
- CFU-F [1]: increased
- PDGF-AA-induced migration capacity [2]: increased
- T cell differentiation [3]: reduction
- T cell proliferation [3]: reduction
- Treg cell differentiation [3]: promotion
- anti-inflammatory effect of stem cells [3]: exhibited
